Assay results: patent US10980819B2, “High concentration formulation” (Cassiopea S.P.A., priority 2015, dated 2021)
Where two headings read alike, the source gives them in different places.

Assays:
[1] = Clinical evaluation, excretion parameters at 1st and 55th application (Example 6); format: in vivo, human; settings: for Analyte Excreted, Free / Analyte Excreted, Total: formulation of Example 4b on scalp
Protocol: The formulation described in Example 4b was studied in a clinical trial to evaluate its pharmacokinetic profile, safety, and tolerability. According to the study protocol, 1 ml of the formulation (corresponding to 50 mg of cortexolone-17α-propionate) was applied once a day on study day 1 and then twice daily thereafter on study days 2-28 to the areas of the scalp suffering from alopecia. Statistical analyses were performed using SAS® version 9.1.3, service pack 4 for Windows and Phoenix WinNonLin 6.3, Pharsight Corporation, USA.

[2] = Evaluation of cortexolone-17α-propionate solubility (Example 1); format: physicochemical; settings: 5 g in 100 ml
Protocol: 5 g of cortexolone-17α-propionate was added to 100 ml of each of the solvents or solvent mixtures shown in Table 1, below, in an effort to produce a 5% w/v solution of cortexolone-17α-propionate. In the examples in Table 1, ethanol refers to ethanol 96°.

[3] = Franz cell diffusion test 1 (Example 7); format: in vitro ADME; settings: for Permeation rate / Skin concentration: 48 h, saturated solution, 300 mg on 2.54 cm^2 skin, 32° C.
Protocol: In an in vitro study, the skin penetration potential of cortexolone-17α-propionate was compared to cyproterone acetate using a standard Franz cell. According to the protocol, 300 mg of each test formulations was applied as saturated solution with a concentration ranging from 0.7 to 1 weight (w/w) to 2.54 cm^2 of exposed skin area. The receptor chamber volume ranged from 4.75 ml to 6.4 ml of phosphate buffered saline/fetal calf serum (2:1) containing penicillin/streptomycin according to standard protocol, and was maintained at a temperature of 32° C.+/−1° C. Stirring was maintained at 300 rpm.
The experiments were conducted for 48 h in triplicate. 100 μl fractions were withdrawn at 5-7 time points during the 48 h test period. After withdrawing a 100 μl fraction for analysis, it was replaced with fresh receiver fluid in an equal volume. At the end of the experiment, the skin was taken from the Franz cells and the skin's stratum corneum was removed by tape stripping (20×) with transparent adhesive tape (Koren, Spain).
The strippings were analyzed by dissolution in a mixture of propylene glycol:oeyl alcohol 9:1. The resulting mixture was analyzed for concentration of cyproterone acetate and cortexolone-17α-propionate, with the results provided in Table 12, below.

[4] = tested on: AGA; test: Finasteride 1 mg tablets phase III clinical studies 087 and 089, published by the FDA (Example 11); format: in vivo, human; settings: original value divided by 5.1
Protocol: Based on the results of finasteride 1 mg tablets (PROPECIA®) described in the two Phase III clinical studies published online by the United States Food and Drug Administration (the FDA), it can be concluded that the mean change from baseline in non-vellus TAHC at month 6 for cortexolone-17α-propionate solution 5% (according to Example 4b), as reported in Example 9, is very similar to the mean change from baseline in non-vellus TAHC at month 6 observed in 2 phase III clinical trials on finasteride 1 mg tablets (tradename Propecia®) per os once daily. Table 20 below reports the change from baseline in TAHC at month 6 in the two finasteride studies (data of active finasteride groups) as described in the NDA for PROPECIA® published online by the FDA:
In the two finasteride studies, the target area was a 1-inch diameter circle, which corresponds to 5.1 cm^2. In order to compare the changes from baseline in TAHC at month 6 obtained in the finasteride studies and the change from baseline in TAHC at month 6 obtained with cortexolone-17α-propionate in the study of the present Example 9 (where the target area was 1 cm^2), the original finasteride data have been recalculated to take into account the differences between the total surfaces of the target areas (i.e., the values were divided by 5.1) as shown in Table 21.

[5] = tested on: AGA; settings: cited from earlier work
[6] = tested on: serum DHT as well as scalp DHT; settings: single oral administration of finasteride 1 mg; cited from earlier work
[7] = PROPECIA package insert; 1 mg tablets; cited from earlier work
[8] = 1st Application (Day 1), N = 18
[9] = 55th Application (Day 28), N = 17

C[C@]12CCC(=O)C=C1CC[C@@H]1[C@@H]2CC[C@@]2(C)[C@H]1CC[C@]2(O)C(=O)CO [Cortexolone, cortexolone]
Analyte Excreted, Free [1, 8]: BLQL
Analyte Excreted, Total [1, 8]: 0.06 ± 0.26 µg
Analyte Excreted, Free [1, 9]: BLQL
Analyte Excreted, Total [1, 9]: 0.64 ± 0.74 µg

CCC(=O)O[C@]1(C(=O)CO)CC[C@H]2[C@@H]3CCC4=CC(=O)CC[C@]4(C)[C@H]3CC[C@@]21C [Cortexolone-17α-propionate, 17α-propionyloxy-21-hydroxy-pregna-4-ene-3,20-dione]
Cortexolone-17α-propionate Solubility at Room Temperature ([2]; Caprylocaproyl polyoxyl-8 glycerides NF (LABRASOL ®)): Sparingly soluble
Cortexolone-17α-propionate Solubility at Room Temperature ([2]; Ethanol (96°)): Highly soluble
Cortexolone-17α-propionate Solubility at Room Temperature ([2]; Ethanol/propylene glycol (1:1) v:v): Soluble
Cortexolone-17α-propionate Solubility at Room Temperature ([2]; Ethanol/propylene glycol/TRANSCUTOL ® (1:1:1) v:v): Very soluble
Cortexolone-17α-propionate Solubility at Room Temperature ([2]; Isopropyl myristate): Insoluble
Cortexolone-17α-propionate Solubility at Room Temperature ([2]; Isopropyl palmitate): Insoluble
Cortexolone-17α-propionate Solubility at Room Temperature ([2]; Propylene glycol): Sparingly soluble
Cortexolone-17α-propionate Solubility at Room Temperature ([2]; TRANSCUTOL ®/water (1:1) v:v): Insoluble
Cortexolone-17α-propionate Solubility at Room Temperature ([2]; TRANSCUTOL ®/water/ethanol (1:1:1) v:v): Soluble
Cortexolone-17α-propionate Solubility at Room Temperature ([2]; TRANSCUTOL ®): Very soluble
Cortexolone-17α-propionate Solubility at Room Temperature ([2]; Water/propylene glycol/TRANSCUTOL ® (1:1:1) v:v): Insoluble
Cortexolone-17α-propionate Solubility at Room Temperature ([2]; Water/propylene glycol/TRANSCUTOL ® (1:1:2) v:v): Soluble
Cortexolone-17α-propionate Solubility at Room Temperature ([2]; Water): Insoluble
% Excreted, Free [1, 8]: 0 ± 0%
% Excreted, Total [1, 8]: 0.25 ± 0.10%
Analyte Excreted, Free [1, 8]: 0.16 ± 0.34 µg
Analyte Excreted, Total [1, 8]: 126.37 ± 48.99 µg
Analyte Excreted, Free [1, 9]: 2.72 ± 1.54 µg
Analyte Excreted, Total [1, 9]: 429.53 ± 178.24 µg
Permeation rate [3]: 1410 ± 137 ng/mL/h
Skin concentration [3]: 231 ± 19 µg/g
permeates skin, times as much as cyproterone acetate ([3]; versus cyproterone acetate): about 3 times
permeation rate, times greater than cyproterone acetate ([3]; versus cyproterone acetate): about 10 times

CC(=O)O[C@]1(C(C)=O)CC[C@H]2[C@@H]3C=C(Cl)C4=CC(=O)[C@@H]5C[C@@H]5[C@]4(C)[C@H]3CC[C@@]21C [Cyproterone Acetate, cyproterone acetate, reference compound]
Permeation rate [3]: 141 ± 17 ng/mL/h
Skin concentration [3]: 89.4 ± 4.6 µg/g

CC(C)(C)NC(=O)[C@H]1CC[C@H]2[C@@H]3CC[C@H]4NC(=O)C=C[C@]4(C)[C@H]3CC[C@]12C [finasteride]
Change from Baseline in non-vellus TAHC at Month 6, recalculated over a target area of 1 cm^2 ([4]; Combined (study 087 + 089)): 12.2
Change from Baseline in non-vellus TAHC at Month 6, recalculated over a target area of 1 cm^2 ([4]; Study 087): 13.6
Change from Baseline in non-vellus TAHC at Month 6, recalculated over a target area of 1 cm^2 ([4]; Study 089): 11.5
Change from Baseline in non-vellus TAHC at Month 6 ([5]; Combined (study 087 + 089), target area 5.1 cm^2): 62.4
Change from Baseline in non-vellus TAHC at Month 6 ([5]; Study 087, target area 1-inch diameter circle, 5.1 cm^2, 1 mg per os once daily): 69.5
Change from Baseline in non-vellus TAHC at Month 6 ([5]; Study 089, target area 1-inch diameter circle, 5.1 cm^2, 1 mg per os once daily): 58.4
decrease of serum DHT as well as scalp DHT compared to baseline [6]: up to 70%
patients with adverse events (decreased libido, erectile dysfunction, ejaculation disorders, decreased volume of ejaculate) [7]: 1%
